Results as given in ChEMBL document CHEMBL1201862, “PubChem BioAssay data set” (2004).
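These data come from cells grown in 96-well plates and exposed to compound for 48 hours at five concentrations. GI50 marks 50% less growth.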 Calls of active or inactive are those of the source. Rule as the data show it: active = GI50 up to about 1.1 µM and inactive = higher.

Columns and labels:
Assay in all cases: inhibition of tumour cell growth, NCI panel, 48 h
RXF 393 = tested on: RXF 393
HCT-15 = tested on: HCT-15
HL-60 = tested on: HL-60
KM12 = tested on: KM12
CAKI-1 = tested on: CAKI-1
SF-268 = tested on: SF-268
MDA-MB-231 = tested on: MDA-MB-231
SF-295 = tested on: SF-295
A498 = tested on: A498
UACC-257 = tested on: UACC-257
IGROV-1 = tested on: IGROV-1
COLO 205 = tested on: COLO 205
OVCAR-5 = tested on: OVCAR-5
NCI-H522 = tested on: NCI-H522
NCI-H23 = tested on: NCI-H23
NCI/ADR-RES = tested on: NCI/ADR-RES
EKVX = tested on: EKVX
T47D = tested on: T47D
ACHN = tested on: ACHN
TK-10 = tested on: TK-10

Structure (SMILES) | GI50 (RXF 393) | GI50 (HCT-15) | GI50 (HL-60) | GI50 (KM12) | GI50 (CAKI-1) | GI50 (SF-268) | GI50 (MDA-MB-231) | GI50 (SF-295) | GI50 (A498) | GI50 (UACC-257) | GI50 (IGROV-1) | GI50 (COLO 205) | GI50 (OVCAR-5) | GI50 (NCI-H522) | GI50 (NCI-H23) | GI50 (NCI/ADR-RES) | GI50 (EKVX) | GI50 (T47D) | GI50 (ACHN) | GI50 (TK-10)
O=C(O)CCC(NC(=O)c1ccc(Oc2nc3ccccc3nc2-c2ccccc2)cc1)C(=O)O (stereo not drawn) | > 100 µM (inactive) | > 100 µM | > 100 µM (inactive) | > 100 µM (inactive) | > 100 µM (inactive) | > 100 µM (inactive) | > 100 µM (inactive) | > 100 µM (inactive) | > 100 µM (inactive) | > 100 µM (inactive) | > 100 µM (inactive) | > 100 µM (inactive) | > 100 µM (inactive) | > 100 µM (inactive) | > 100 µM (inactive) | > 100 µM (inactive) | > 100 µM (inactive) | > 100 µM (inactive) | > 100 µM (inactive) | > 100 µM (inactive)
O=C1CC(CC(=O)c2ccc(Br)cc2)C(O)=C1C(=O)c1ccc(Br)cc1 (stereo not drawn) | > 100 µM (inactive) | > 100 µM | > 100 µM (inactive) | 11.5 µM (inactive) | > 100 µM (inactive) | 87.1 µM (inactive) | 72.9 µM (inactive) | 53.1 µM (inactive) | 77.1 µM (inactive) | > 100 µM (inactive) | > 100 µM (inactive) | > 100 µM (inactive) | > 100 µM (inactive) | 51.6 µM (inactive) | 87.7 µM (inactive) | > 100 µM (inactive) | > 100 µM (inactive) | 71.6 µM (inactive) | > 100 µM (inactive) | > 100 µM (inactive)
COc1nc2ncc([C@@H](O)[C@H](O)CO)nc2c(=O)n1C | > 100 µM (inactive) | > 100 µM | > 100 µM (inactive) | > 100 µM (inactive) | > 100 µM (inactive) | > 100 µM (inactive) | > 100 µM (inactive) | > 100 µM (inactive) | > 100 µM (inactive) | > 100 µM (inactive) | > 100 µM (inactive) | > 100 µM (inactive) | > 100 µM (inactive) | > 100 µM (inactive) | – | > 100 µM (inactive) | > 100 µM (inactive) | > 100 µM (inactive) | > 100 µM (inactive) | > 100 µM (inactive)
COc1c(Cl)cc(NC(=S)C#N)cc1Cl | 27.3 µM (inactive) | 18.4 µM | > 100 µM (inactive) | 30.4 µM (inactive) | 22.7 µM (inactive) | 31.2 µM (inactive) | 17 µM (inactive) | 29.5 µM (inactive) | 19.1 µM (inactive) | 19.9 µM (inactive) | 27.1 µM (inactive) | 17.8 µM (inactive) | 37.1 µM (inactive) | 19.4 µM (inactive) | 19.3 µM (inactive) | 22.1 µM (inactive) | 22.2 µM (inactive) | 12.6 µM (inactive) | 25.6 µM (inactive) | 33.8 µM (inactive)
c1ccc(COC[C@H]2C3OCC([C@H](OCc4ccccc4)[C@H]3OCc3ccccc3)N2Cc2ccccc2)cc1 (stereo partly drawn) | > 100 µM (inactive) | > 45.8 µM | 8.41 µM (inactive) | 25.3 µM (inactive) | > 53.7 µM (inactive) | > 54.3 µM (inactive) | > 49.2 µM (inactive) | > 51.2 µM (inactive) | 33.7 µM (inactive) | 49 µM (inactive) | 43 µM (inactive) | > 57 µM (inactive) | > 52.4 µM (inactive) | 13.9 µM (inactive) | 40.3 µM (inactive) | > 47.8 µM (inactive) | > 46.7 µM (inactive) | 13.6 µM (inactive) | > 56.2 µM (inactive) | > 52.6 µM (inactive)
O=c1cc(N2CCCC2)[nH]c(=O)n1-c1ccc(Cl)cc1 | > 100 µM (inactive) | > 100 µM | > 100 µM (inactive) | > 100 µM (inactive) | > 100 µM (inactive) | > 100 µM (inactive) | > 100 µM (inactive) | > 100 µM (inactive) | > 100 µM (inactive) | > 100 µM (inactive) | > 100 µM (inactive) | > 100 µM (inactive) | > 100 µM (inactive) | > 100 µM (inactive) | > 100 µM (inactive) | > 100 µM (inactive) | > 100 µM (inactive) | > 100 µM (inactive) | > 100 µM (inactive) | > 100 µM (inactive)
CC(C)(C)OC(=O)NNCC(O)COc1ccccc1 (stereo not drawn) | > 100 µM (inactive) | > 100 µM | 0.0318 µM (active) | – | > 100 µM (inactive) | > 100 µM (inactive) | > 100 µM (inactive) | > 100 µM (inactive) | > 100 µM (inactive) | > 100 µM (inactive) | > 100 µM (inactive) | > 100 µM (inactive) | > 100 µM (inactive) | > 100 µM (inactive) | > 100 µM (inactive) | > 100 µM (inactive) | > 100 µM (inactive) | > 100 µM (inactive) | > 100 µM (inactive) | > 100 µM (inactive)
O=C(O)c1cc(/N=C/c2ccccc2O)cc(C(=O)O)c1 | > 100 µM (inactive) | > 100 µM | > 100 µM (inactive) | > 100 µM (inactive) | > 100 µM (inactive) | > 100 µM (inactive) | > 100 µM (inactive) | > 100 µM (inactive) | > 100 µM (inactive) | > 100 µM (inactive) | > 100 µM (inactive) | > 100 µM (inactive) | > 100 µM (inactive) | > 100 µM (inactive) | > 100 µM (inactive) | > 100 µM (inactive) | > 100 µM (inactive) | > 100 µM (inactive) | > 100 µM (inactive) | > 100 µM (inactive)
O=c1c2cnccc2cc2c3ccccc3ccn12 | > 100 µM (inactive) | 23.1 µM | 17.7 µM (inactive) | 5.64 µM (inactive) | 9.89 µM (inactive) | 86.1 µM (inactive) | > 100 µM (inactive) | > 100 µM (inactive) | > 100 µM (inactive) | > 100 µM (inactive) | 6.15 µM (inactive) | 63.2 µM (inactive) | > 100 µM (inactive) | 45.6 µM (inactive) | 51.6 µM (inactive) | > 100 µM (inactive) | 3.63 µM (inactive) | 32.4 µM (inactive) | 19.3 µM (inactive) | 24.3 µM (inactive)
O=c1ccc(=O)c2c1c1[nH]c3ccccc3c1c1c(=O)c3ccccc3c(=O)c21 | > 10 µM (inactive) | > 10 µM | 3.85 µM (inactive) | > 10 µM (inactive) | 6.71 µM (inactive) | > 10 µM (inactive) | 5.36 µM (inactive) | > 10 µM (inactive) | > 10 µM (inactive) | > 10 µM (inactive) | > 10 µM (inactive) | > 10 µM (inactive) | > 10 µM (inactive) | > 10 µM (inactive) | > 10 µM (inactive) | > 10 µM (inactive) | > 10 µM (inactive) | > 10 µM (inactive) | > 10 µM (inactive) | 4.92 µM (inactive)
COC/C=C\[C@]1(O)CCCC[C@@H]1CC(OC)OC | > 100 µM (inactive) | > 100 µM | 20.4 µM (inactive) | > 100 µM (inactive) | > 100 µM (inactive) | > 100 µM (inactive) | > 100 µM (inactive) | > 100 µM (inactive) | > 100 µM (inactive) | > 100 µM (inactive) | > 100 µM (inactive) | > 100 µM (inactive) | > 100 µM (inactive) | 67.5 µM (inactive) | > 100 µM (inactive) | > 100 µM (inactive) | > 100 µM (inactive) | > 100 µM (inactive) | > 100 µM (inactive) | > 100 µM (inactive)
CC(C)=CCOc1cc(NC(=S)c2ccsc2C)ccc1Cl | 27.9 µM (inactive) | > 100 µM | 44.1 µM (inactive) | > 100 µM (inactive) | > 100 µM (inactive) | 32.3 µM (inactive) | 13.1 µM (inactive) | 36 µM (inactive) | 27.3 µM (inactive) | 88.1 µM (inactive) | 4.43 µM (inactive) | 37.3 µM (inactive) | 86.7 µM (inactive) | 54.5 µM (inactive) | 17.1 µM (inactive) | 80.4 µM (inactive) | 56.8 µM (inactive) | 1.64 µM (inactive) | 16.7 µM (inactive) | 93.5 µM (inactive)
CCn1c(CCCc2nc3c(=O)n(C)c(=O)n(C)c3[nH]2)nc2c1c(=O)n(C)c(=O)n2C | > 100 µM (inactive) | > 100 µM | 77.8 µM (inactive) | > 100 µM (inactive) | > 100 µM (inactive) | > 100 µM (inactive) | > 100 µM (inactive) | > 100 µM (inactive) | > 100 µM (inactive) | > 100 µM (inactive) | > 100 µM (inactive) | 12.1 µM (inactive) | > 100 µM (inactive) | > 100 µM (inactive) | > 100 µM (inactive) | > 100 µM (inactive) | 43 µM (inactive) | > 100 µM (inactive) | > 100 µM (inactive) | > 100 µM (inactive)
O=C(O)CCC1C(=O)C2CCN1CC2 (stereo not drawn) | > 100 µM (inactive) | > 100 µM | > 100 µM (inactive) | > 100 µM (inactive) | > 100 µM (inactive) | > 100 µM (inactive) | > 100 µM (inactive) | > 100 µM (inactive) | 97.7 µM (inactive) | > 100 µM (inactive) | > 100 µM (inactive) | > 100 µM (inactive) | > 100 µM (inactive) | > 100 µM (inactive) | > 100 µM (inactive) | > 100 µM (inactive) | > 100 µM (inactive) | > 100 µM (inactive) | > 100 µM (inactive) | > 100 µM (inactive)
